Molecules are shown by their SMILES. Active and inactive are the calls of the source. The rule behind the calls is not given here. Where only a bound is given, the exact number is not on record here.

Format in all cases: functional, cell-based
In one assay the test system is Huh-7. In words: Cytotoxicity against human Huh-7 cells assessed as cell growth inhibition incubated for 72 hrs by SRB assay. As to conditions: for IC50: Huh-7, 72 h. (In SRB staining, fixed cells bind dye roughly in proportion to their protein.)
A further assay relates to HCT-116. Nature of the assay: Cytotoxicity against human HCT-116 cells assessed as cell growth inhibition incubated for 72 hrs by SRB assay. As to conditions: for IC50: HCT-116, 72 h.
Another assay has as its system MCF7. Nature of the assay: Cytotoxicity against human MCF7 cells assessed as cell growth inhibition incubated for 72 hrs by SRB assay. As to conditions: for IC50: MCF7, 72 h.
The next assay concerns Mahlavu. Nature of the assay: Cytotoxicity against human Mahlavu cells assessed as cell growth inhibition incubated for 72 hrs by SRB assay.
A short description of assay [1]: Cytotoxicity against human FOCUS cells assessed as cell growth inhibition incubated for 72 hrs by SRB assay.
The subject of the next assay is SNU-398. In words: Cytotoxicity against human SNU-398 cells assessed as cell growth inhibition incubated for 72 hrs by SRB assay. Particulars: SNU-398, 72 h.
A further assay deals with Hep 3B2. In words: Cytotoxicity against human Hep3B cells assessed as cell growth inhibition incubated for 72 hrs by SRB assay.
For a further assay, the system named is HepG2. In words: Cytotoxicity against human HepG2 cells assessed as cell growth inhibition incubated for 72 hrs by SRB assay. As to conditions: HepG2, 72 h.
The subject of a further assay is PLC. In words: Cytotoxicity against human PLC cells assessed as cell growth inhibition incubated for 72 hrs by SRB assay.
The next assay relates to SNU-475. Nature of the assay: Cytotoxicity against human SNU-475 cells assessed as cell growth inhibition by SRB assay.
The next assay relates to SNU-182. In words: Cytotoxicity against human SNU-182 cells assessed as cell growth inhibition incubated for 72 hrs by SRB assay. Particulars: SNU-182, 72 h.
The next assay relates to SNU-387. In words: Cytotoxicity against human SNU-387 cells assessed as cell growth inhibition incubated for 72 hrs by SRB assay. As to conditions: SNU-387, 72 h.
For a further assay, the system named is SNU-423. In words: Cytotoxicity against human SNU-423 cells assessed as cell growth inhibition incubated for 72 hrs by SRB assay. As to conditions: SNU-423, 72 h.
In the next assay the test system is SNU-449. In words: Cytotoxicity against human SNU-449 cells assessed as cell growth inhibition incubated for 72 hrs by SRB assay. As to conditions: SNU-449, 72 h.

Consider `Clc1ccc(N2CCN(c3ncnc4c3nc(-c3ccc(Br)cc3)n4C3CCCC3)CC2)cc1`, for which the outcome with Huh-7 and in the assay with HCT-116 was inactive. The IC50 (commonly the concentration that gives 50% inhibition) in the assay on MCF7 was 51.6 µM.

As for `FC(F)(F)c1ccc(N2CCN(c3ncnc4c3nc(-c3ccc(Br)cc3)n4C3CCCC3)CC2)cc1`, the figures for the IC50 with Huh-7, with HCT-116 and in the assay on MCF7 were 58.1 µM, 58.5 µM and 17.4 µM, respectively.

`COc1ccc(-c2nc3c(N4CCN(c5ccc(Cl)cc5)CC4)ncnc3n2C2CCCC2)cc1`: the IC50 with Huh-7 was determined as 5.5 µM; with HCT-116, 30.9 µM; in the assay with MCF7, 69.8 µM.

Take `Cc1ccc(N2CCN(c3ncnc4c3nc(-c3ccc(F)cc3)n4C3CCCC3)CC2)cc1`: the half-inhibitory concentration (IC50) in the assay with Huh-7 came out at 20.8 µM; with HCT-116, 26.1 µM. Further, the outcome in the assay with MCF7 was inactive.

Consider `Cc1ccc(-c2nc3c(N4CCN(c5ccc(Cl)cc5)CC4)ncnc3n2C2CCCC2)cc1`, for which the IC50 in the assay on Huh-7 amounted to 61.8 µM. For the same compound, the outcome with HCT-116 and with MCF7 was inactive.

Take `FC(F)(F)c1ccc(N2CCN(c3ncnc4c3nc(-c3ccc(Cl)cc3)n4C3CCCC3)CC2)cc1`: the half-inhibitory concentration (IC50) came to 19.4 µM in the assay with Huh-7 and 30.3 µM with MCF7. Moreover, the result in the assay with HCT-116 was inactive.

For `COc1ccc(-c2nc3c(N4CCN(c5ccc(Cl)c(Cl)c5)CC4)ncnc3n2C2CCCC2)cc1`, the figures for the half-inhibitory concentration (IC50) with Huh-7, in the assay with HCT-116 and in the assay on MCF7 were 7.4 µM, 33.6 µM and 30.6 µM, respectively.

As to `Fc1ccc(-c2nc3c(N4CCN(c5ccc(Cl)c(Cl)c5)CC4)ncnc3n2C2CCCC2)cc1`, the IC50 was 30 µM with Huh-7 and 50.6 µM in the assay on HCT-116. In addition, the result in the assay on MCF7 was inactive.

For the compound `Nc1nc(Cl)nc2c1ncn2[C@H]1C[C@H](O)[C@@H](CO)O1` [CLADRIBINE], the IC50 is 0.9 µM with Huh-7; < 0.1 µM in the assay with HCT-116; 2.4 µM with MCF7; < 0.1 µM in the assay with Mahlavu; < 0.1 µM in assay [1]; < 0.1 µM in the assay on SNU-398.

For the compound `Cc1ccc(N2CCN(c3ncnc4c3nc(-c3ccc(Cl)cc3)n4C3CCCC3)CC2)cc1`, the IC50 with Huh-7 was found to be 15.7 µM; in the assay with HCT-116, 6.5 µM; with MCF7, 21.6 µM.

Take `Fc1ccc(-c2nc3c(N4CCN(c5ccc(Cl)cc5)CC4)ncnc3n2C2CCCC2)cc1`: the IC50 in the assay with Huh-7 amounted to 20.2 µM; with HCT-116 it was 51.4 µM. Besides, the outcome in the assay on MCF7 was inactive.

Regarding `Clc1ccc(N2CCN(c3ncnc4c3nc(-c3ccc(Br)cc3)n4C3CCCC3)CC2)cc1Cl`, the result in the assay on Huh-7 and in the assay on HCT-116 was inactive. Besides, the IC50 in the assay on MCF7 was 60.7 µM.

For `FC(F)(F)c1ccc(-c2nc3c(N4CCN(c5ccc(Cl)c(Cl)c5)CC4)ncnc3n2C2CCCC2)cc1`, the IC50 in the assay with Huh-7 came to 35.1 µM; in the assay on MCF7, 7.2 µM. The outcome with HCT-116 was inactive.

Turning to `O=c1[nH]cc(F)c(=O)[nH]1` [FLUOROURACIL], the IC50 with HCT-116 came out at 4.1 µM.

`Fc1ccc(-c2nc3c(N4CCN(c5ccccc5)CC4)ncnc3n2C2CCCC2)cc1`: the figures for the IC50 with Huh-7, in the assay with HCT-116 and with MCF7 were 11.4 µM, 13.7 µM and 68.2 µM, respectively.

Take `Fc1ccc(-c2nc3c(N4CCN(c5ccc(C(F)(F)F)cc5)CC4)ncnc3n2C2CCCC2)cc1`: the concentration for half-maximal inhibition (IC50) was 11.4 µM in the assay with Huh-7, 13.5 µM in the assay on HCT-116 and 32.4 µM in the assay with MCF7.

Turning to `Cc1ccc(-c2nc3c(N4CCN(c5ccc(Cl)c(Cl)c5)CC4)ncnc3n2C2CCCC2)cc1`, the result in the assay with Huh-7, in the assay with HCT-116 and in the assay on MCF7 was inactive.

In the case of `COc1ccc(-c2nc3c(N4CCN(c5ccc(C(F)(F)F)cc5)CC4)ncnc3n2C2CCCC2)cc1`, the IC50 in the assay on Huh-7 worked out at 9.8 µM. The outcome in the assay with HCT-116 and in the assay with MCF7 was inactive.

With `Cc1ccc(-c2nc3c(N4CCN(c5ccc(C(F)(F)F)cc5)CC4)ncnc3n2C2CCCC2)cc1`, the values for the IC50 in the assay with Huh-7, in the assay with HCT-116 and in the assay on MCF7 were 13.1 µM, 34.3 µM and 26.2 µM, respectively.

Turning to `Cc1ccc(-c2nc3c(N4CCN(c5ccc(C)cc5)CC4)ncnc3n2C2CCCC2)cc1`, the IC50 in the assay on Huh-7 came to 17.4 µM; in the assay with HCT-116, 33.4 µM; in the assay on MCF7, 47.5 µM.

Regarding `Clc1ccc(-c2nc3c(N4CCN(c5ccccc5)CC4)ncnc3n2C2CCCC2)cc1`, the IC50 in the assay on Huh-7 turned out to be 23.2 µM; in the assay on HCT-116, 5.8 µM; with MCF7, 19.8 µM.

In the case of `Cc1ccc(N2CCN(c3ncnc4c3nc(-c3ccc(C(F)(F)F)cc3)n4C3CCCC3)CC2)cc1`, the IC50 with Huh-7 amounted to 16.1 µM; in the assay with HCT-116 it was 46.2 µM; in the assay on MCF7, 30.1 µM.

Consider `COc1ccc(-c2nc3c(N4CCN(c5ccc(C)cc5)CC4)ncnc3n2C2CCCC2)cc1`, for which the outcome with Huh-7 and with HCT-116 was inactive. The IC50 with MCF7 was determined as 58.4 µM.

As for `FC(F)(F)c1ccc(-c2nc3c(N4CCN(c5ccc(Cl)cc5)CC4)ncnc3n2C2CCCC2)cc1`, the IC50 in the assay on Huh-7 amounted to 61.4 µM; in the assay with MCF7 it was 57.9 µM. Moreover, in the assay with HCT-116, the outcome was inactive.

For `Clc1ccc(-c2nc3c(N4CCN(c5ccc(Cl)cc5)CC4)ncnc3n2C2CCCC2)cc1`, the IC50 in the assay with Huh-7 is 39 µM; in the assay with HCT-116 it was 64.9 µM; in the assay on MCF7, 35.8 µM.

In the case of `Cc1ccc(-c2nc3c(N4CCN(c5ccccc5)CC4)ncnc3n2C2CCCC2)cc1`, the IC50 stood at 12.9 µM in the assay with Huh-7, 18.8 µM with HCT-116 and 21.4 µM with MCF7.

Take `Cc1ccc(N2CCN(c3ncnc4c3nc(-c3ccc(Br)cc3)n4C3CCCC3)CC2)cc1`: the IC50 turned out to be 28.4 µM in the assay on Huh-7, 52.3 µM with HCT-116 and 24.8 µM in the assay with MCF7.

For the compound `Clc1ccc(-c2nc3c(N4CCN(c5ccc(Cl)c(Cl)c5)CC4)ncnc3n2C2CCCC2)cc1`, the IC50 with Huh-7 came out at 58.7 µM. The result in the assay with HCT-116 and in the assay on MCF7 was inactive.

For the compound `Nc1nc(F)nc2c1ncn2[C@@H]1O[C@H](CO)[C@@H](O)[C@@H]1O` [FLUDARABINE], in the assay with Huh-7, the concentration for half-maximal inhibition (IC50) worked out at 28.4 µM.

Take `Brc1ccc(-c2nc3c(N4CCN(c5ccccc5)CC4)ncnc3n2C2CCCC2)cc1`: the values for the IC50 with Huh-7, in the assay with HCT-116 and in the assay on MCF7 were 11.1 µM, 28.8 µM and 15 µM, respectively.

In the case of `FC(F)(F)c1ccc(-c2nc3c(N4CCN(c5ccc(C(F)(F)F)cc5)CC4)ncnc3n2C2CCCC2)cc1`, the IC50 with Huh-7 came out at 9.3 µM; in the assay on HCT-116, 10.8 µM; in the assay with MCF7, 6.1 µM; in the assay with Hep 3B2, 10.3 µM; in the assay on HepG2 it was 6.6 µM; with PLC it was 99.1 µM. Also, the IC50 in the assay on Mahlavu turned out to be 19.8 µM; in assay [1], 4.5 µM; with SNU-475 it was 17 µM; in the assay on SNU-182, 16.4 µM; in the assay on SNU-387 it was 98.7 µM; in the assay on SNU-398, 19 µM. In addition, the values for the IC50 in the assay with SNU-423 and in the assay with SNU-449 were 24.9 µM and 60.6 µM, respectively.

With `COc1ccc(-c2nc3c(N4CCN(c5ccccc5)CC4)ncnc3n2C2CCCC2)cc1`, the IC50 was 57.1 µM with Huh-7 and 42.3 µM with HCT-116. Further, in the assay with MCF7, the result was inactive.

Turning to `FC(F)(F)c1ccc(-c2nc3c(N4CCN(c5ccccc5)CC4)ncnc3n2C2CCCC2)cc1`, the IC50 in the assay with Huh-7 was determined as 7.6 µM; in the assay with HCT-116 it was 25.3 µM; in the assay with MCF7, 25.9 µM.

The values are drawn from ChEMBL document CHEMBL5576049, “Synthesis and cytotoxicity of novel 6,8,9-trisubstituted purine analogs against liver cancer cells” (Bioorg Med Chem Lett, 2024).
